Activity calls are given as the source filed them.
Legend:
Type in all cases: functional
[1] = biological target: T1, Tyrosine-protein kinase receptor TYRO3 (Homo sapiens, UniProt Q06418);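 also: TYRO3 value obtained as one member of a kinome-wide profiling panel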
T1 sequence (Q06418 whole entry): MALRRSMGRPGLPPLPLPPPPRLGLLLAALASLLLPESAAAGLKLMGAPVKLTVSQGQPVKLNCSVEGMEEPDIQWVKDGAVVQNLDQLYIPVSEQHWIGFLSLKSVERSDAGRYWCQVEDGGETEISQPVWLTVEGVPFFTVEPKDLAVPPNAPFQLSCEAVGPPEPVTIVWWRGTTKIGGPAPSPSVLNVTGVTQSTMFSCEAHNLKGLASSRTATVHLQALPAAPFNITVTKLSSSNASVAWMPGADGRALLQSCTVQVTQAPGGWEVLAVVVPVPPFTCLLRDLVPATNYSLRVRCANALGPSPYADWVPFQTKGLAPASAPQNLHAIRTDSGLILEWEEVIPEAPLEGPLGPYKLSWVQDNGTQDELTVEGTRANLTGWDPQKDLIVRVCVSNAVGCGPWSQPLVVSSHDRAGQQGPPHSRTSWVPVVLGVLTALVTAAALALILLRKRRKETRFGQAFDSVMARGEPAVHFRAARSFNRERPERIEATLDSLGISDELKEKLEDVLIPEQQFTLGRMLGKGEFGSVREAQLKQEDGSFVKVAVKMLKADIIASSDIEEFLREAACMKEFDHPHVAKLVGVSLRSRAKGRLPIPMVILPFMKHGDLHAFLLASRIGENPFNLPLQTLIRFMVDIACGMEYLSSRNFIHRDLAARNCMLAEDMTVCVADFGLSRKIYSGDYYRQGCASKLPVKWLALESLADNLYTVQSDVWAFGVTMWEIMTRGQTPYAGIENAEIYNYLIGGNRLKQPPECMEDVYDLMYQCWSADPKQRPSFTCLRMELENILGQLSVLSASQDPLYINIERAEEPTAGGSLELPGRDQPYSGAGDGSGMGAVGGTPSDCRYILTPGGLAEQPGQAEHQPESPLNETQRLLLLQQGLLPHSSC

[2] = biological target: Non-receptor tyrosine-protein kinase TYK2 (Homo sapiens, UniProt P29597)
[3] = biological target: T2, Mitogen-activated protein kinase kinase kinase kinase 2 (Homo sapiens, UniProt Q12851);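 also: measured as one member of a kinome-wide kinase panel, with MAP4K2 as the panel entry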
T2 sequence (Q12851 whole entry): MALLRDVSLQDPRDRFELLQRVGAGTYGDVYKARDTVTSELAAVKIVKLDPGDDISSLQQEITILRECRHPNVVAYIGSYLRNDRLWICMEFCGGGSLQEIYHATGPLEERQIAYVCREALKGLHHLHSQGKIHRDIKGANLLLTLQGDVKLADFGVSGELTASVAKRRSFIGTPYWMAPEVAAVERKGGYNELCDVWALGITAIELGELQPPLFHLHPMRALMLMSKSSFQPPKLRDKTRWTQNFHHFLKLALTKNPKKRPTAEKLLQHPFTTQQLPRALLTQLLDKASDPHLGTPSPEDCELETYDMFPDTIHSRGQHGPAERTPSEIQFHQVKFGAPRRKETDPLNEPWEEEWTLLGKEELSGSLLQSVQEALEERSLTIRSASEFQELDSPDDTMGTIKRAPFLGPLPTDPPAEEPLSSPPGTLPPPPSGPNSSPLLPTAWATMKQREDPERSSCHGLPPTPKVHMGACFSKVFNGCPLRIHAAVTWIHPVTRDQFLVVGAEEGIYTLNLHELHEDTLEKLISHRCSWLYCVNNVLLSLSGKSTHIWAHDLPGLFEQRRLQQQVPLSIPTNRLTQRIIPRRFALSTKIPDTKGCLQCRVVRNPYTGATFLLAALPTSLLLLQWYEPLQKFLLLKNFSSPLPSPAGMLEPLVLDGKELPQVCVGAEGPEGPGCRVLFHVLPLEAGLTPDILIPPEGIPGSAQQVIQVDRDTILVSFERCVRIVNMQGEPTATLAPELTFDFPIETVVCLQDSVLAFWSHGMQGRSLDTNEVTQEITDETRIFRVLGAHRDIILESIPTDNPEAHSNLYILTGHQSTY

[4] = biological target: Casein kinase I isoform delta (Homo sapiens, UniProt P48730);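 also: measured as one member (CSNK1D) of a kinome panel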
Aurora kinase B = Aurora kinase B (Homo sapiens, UniProt Q96GD4)
[5] = biological target: Calcium/calmodulin-dependent protein kinase type 1 (Homo sapiens, UniProt Q14012)
[6] = biological target: T3, 3-phosphoinositide-dependent protein kinase 1 (Homo sapiens, UniProt O15530);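 also: value comes from the Navigating the Kinome panel, PDPK1 member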
T3 sequence (O15530 whole entry): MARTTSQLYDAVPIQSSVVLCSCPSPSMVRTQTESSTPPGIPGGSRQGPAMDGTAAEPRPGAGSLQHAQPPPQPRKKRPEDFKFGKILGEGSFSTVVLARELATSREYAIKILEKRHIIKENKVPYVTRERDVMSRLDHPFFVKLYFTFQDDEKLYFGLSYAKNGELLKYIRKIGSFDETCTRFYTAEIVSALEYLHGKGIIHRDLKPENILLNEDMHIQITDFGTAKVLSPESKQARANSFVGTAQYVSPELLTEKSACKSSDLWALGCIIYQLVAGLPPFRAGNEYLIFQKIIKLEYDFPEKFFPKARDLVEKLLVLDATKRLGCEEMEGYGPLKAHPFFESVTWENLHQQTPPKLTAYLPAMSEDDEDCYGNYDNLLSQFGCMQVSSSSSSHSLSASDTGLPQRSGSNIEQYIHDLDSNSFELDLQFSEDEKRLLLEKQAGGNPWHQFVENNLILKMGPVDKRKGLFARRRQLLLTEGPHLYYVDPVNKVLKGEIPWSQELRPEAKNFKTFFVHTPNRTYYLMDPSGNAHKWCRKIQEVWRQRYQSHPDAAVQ

Aurora kinase B, sequence (Q96GD4 whole entry): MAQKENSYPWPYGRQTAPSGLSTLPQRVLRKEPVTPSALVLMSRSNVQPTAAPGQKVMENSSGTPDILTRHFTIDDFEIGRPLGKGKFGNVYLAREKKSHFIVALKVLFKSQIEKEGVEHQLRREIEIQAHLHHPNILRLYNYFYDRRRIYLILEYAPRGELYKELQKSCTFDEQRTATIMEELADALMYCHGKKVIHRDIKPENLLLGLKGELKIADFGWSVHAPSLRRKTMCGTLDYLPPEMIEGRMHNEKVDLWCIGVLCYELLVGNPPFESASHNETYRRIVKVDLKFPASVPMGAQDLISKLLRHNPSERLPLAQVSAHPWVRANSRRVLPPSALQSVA
Calcium/calmodulin-dependent protein kinase type 1, sequence (Q14012 whole entry): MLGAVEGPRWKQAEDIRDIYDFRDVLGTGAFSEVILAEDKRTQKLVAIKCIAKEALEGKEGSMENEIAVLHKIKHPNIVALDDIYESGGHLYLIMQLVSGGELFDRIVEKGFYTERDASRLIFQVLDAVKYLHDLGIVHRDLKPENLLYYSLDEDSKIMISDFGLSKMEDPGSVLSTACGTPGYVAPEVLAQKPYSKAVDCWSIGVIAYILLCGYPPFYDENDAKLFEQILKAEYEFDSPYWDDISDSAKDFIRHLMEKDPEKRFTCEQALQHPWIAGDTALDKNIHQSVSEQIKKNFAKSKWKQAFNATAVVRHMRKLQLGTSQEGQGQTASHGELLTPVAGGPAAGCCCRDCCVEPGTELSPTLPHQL
Casein kinase I isoform delta, sequence (P48730 whole entry, canonical isoform): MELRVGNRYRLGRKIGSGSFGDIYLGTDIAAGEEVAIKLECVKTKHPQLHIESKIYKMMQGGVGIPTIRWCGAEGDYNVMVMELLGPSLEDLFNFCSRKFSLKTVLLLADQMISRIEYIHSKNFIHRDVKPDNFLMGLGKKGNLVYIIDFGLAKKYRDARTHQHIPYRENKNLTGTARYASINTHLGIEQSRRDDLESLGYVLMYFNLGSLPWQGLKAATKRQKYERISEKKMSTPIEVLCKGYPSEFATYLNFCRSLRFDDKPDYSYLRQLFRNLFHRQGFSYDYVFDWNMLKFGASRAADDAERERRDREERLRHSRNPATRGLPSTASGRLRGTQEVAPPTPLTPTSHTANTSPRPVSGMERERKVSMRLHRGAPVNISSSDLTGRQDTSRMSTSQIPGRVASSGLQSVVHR
Non-receptor tyrosine-protein kinase TYK2, sequence (P29597 whole entry): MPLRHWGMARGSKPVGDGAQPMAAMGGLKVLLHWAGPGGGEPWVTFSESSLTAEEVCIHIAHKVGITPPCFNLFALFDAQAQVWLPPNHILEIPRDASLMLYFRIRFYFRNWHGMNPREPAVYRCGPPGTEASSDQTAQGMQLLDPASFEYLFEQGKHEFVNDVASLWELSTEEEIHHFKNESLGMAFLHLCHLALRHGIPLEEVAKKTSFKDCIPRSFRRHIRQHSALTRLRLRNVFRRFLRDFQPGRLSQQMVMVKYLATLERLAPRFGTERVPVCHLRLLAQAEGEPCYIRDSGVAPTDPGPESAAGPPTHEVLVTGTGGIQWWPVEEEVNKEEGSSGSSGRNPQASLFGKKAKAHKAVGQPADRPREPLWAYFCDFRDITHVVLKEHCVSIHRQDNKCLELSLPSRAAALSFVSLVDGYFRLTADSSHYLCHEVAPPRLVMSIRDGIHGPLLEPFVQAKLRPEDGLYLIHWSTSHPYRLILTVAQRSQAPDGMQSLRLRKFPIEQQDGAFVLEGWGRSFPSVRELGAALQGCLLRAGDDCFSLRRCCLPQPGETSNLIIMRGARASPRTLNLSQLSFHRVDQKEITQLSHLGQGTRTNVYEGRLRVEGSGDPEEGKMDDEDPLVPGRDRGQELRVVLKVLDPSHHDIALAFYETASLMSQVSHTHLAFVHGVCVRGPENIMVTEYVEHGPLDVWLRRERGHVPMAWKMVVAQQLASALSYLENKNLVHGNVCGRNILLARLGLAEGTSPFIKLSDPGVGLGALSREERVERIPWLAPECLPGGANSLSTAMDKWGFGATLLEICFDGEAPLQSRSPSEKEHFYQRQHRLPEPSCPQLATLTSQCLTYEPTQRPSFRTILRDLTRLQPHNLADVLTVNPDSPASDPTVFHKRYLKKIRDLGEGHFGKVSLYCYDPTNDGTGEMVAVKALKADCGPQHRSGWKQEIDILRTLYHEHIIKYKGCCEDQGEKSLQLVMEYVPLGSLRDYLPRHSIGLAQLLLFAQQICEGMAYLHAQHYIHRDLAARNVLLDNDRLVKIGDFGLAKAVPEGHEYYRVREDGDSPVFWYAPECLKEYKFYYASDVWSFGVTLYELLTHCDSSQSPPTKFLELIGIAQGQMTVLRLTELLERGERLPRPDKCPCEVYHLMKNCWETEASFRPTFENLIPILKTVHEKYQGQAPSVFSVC

Ki [1] | Ki [2] | Ki [3] | pKi [3] | Ki [4] | pKi [4] | Ki (Aurora kinase B) | pKi (Aurora kinase B) | Ki [5] | Ki [6] | SMILES
> 2 µM (inactive) | 0.794 µM (active) | 0.2 µM (active) | 6.7 | 0.0158 µM (active) | 7.8 | 0.631 µM (active) | 6.2 | > 3.98 µM (inactive) | > 3.98 µM (inactive) | NC(=O)c1cc(-c2ccnc(N)n2)[nH]c1-c1ccc(Cl)cc1Cl
> 2 µM (inactive) | > 2 µM (inactive) | 0.0398 µM (active) | – | 0.398 µM (active) | – | 0.2 µM (active) | – | 1.26 µM (active) | 0.0501 µM (active) | NC(COc1cncc(-c2ccc3c(c2)C(=Cc2ccco2)C(=O)N3)c1)Cc1c[nH]c2ccccc12 (centres undefined)

SMILES | Ki [1] | Ki [2] | Ki [3] | pKi [3] | Ki [4] | pKi [4] | Ki (Aurora kinase B) | pKi (Aurora kinase B) | Ki [5] | Ki [6]
Cc1ccc(-n2nc(C(C)(C)C)cc2NC(=O)Nc2ccc(OCCN3CCOCC3)c3ccccc23)cc1 [DORAMAPIMOD] | 2 µM (active) | > 2 µM (inactive) | > 2.51 µM (inactive) | – | > 7.94 µM (inactive) | – | > 5.01 µM (inactive) | – | > 7.94 µM (inactive) | > 3.98 µM (inactive)

Source: ChEMBL document CHEMBL1201862, “PubChem BioAssay data set” (2004)
